In patent publication US20200299791A1, “Process for the Production of a Saccharide Product from an Aqueous Solution” (Avantium Knowledge Centre B.V., priority 2015, published 2020):

Tests used:
[1] = Partition of model by-product compounds between Carrier liquid 2 (poly-alpha-olefin) and organic solvent; type: physicochemical; conditions: log {[compound]carrier liquid/[compound]organic solvent}, 2 mL solvent + 3 mL carrier liquid solution, shaken 60 min at room temperature
Procedure: (§1) Six compounds were dissolved in two different carrier liquids. The six compounds were exemplary for the by-products that may be obtained when wood is subjected to hydrolysis by the reaction of concentrated hydrochloric acid and that may be obtained when the hydrolyzate thus obtained in treated with the carrier liquid. The compounds were • a) betulin, a triterpene having a pentacyclic structure and two hydroxyl groups, • b) abietic acid, i.e. a diterpene compound derived from four isoprene units and a having one carboxylic acid group, • c) linoleic acid, a fatty aid having 18 carbon atoms and two unsaturated bonds, • d) 1-eicosanol, a linear alkanol having 20 carbon atoms, • e) sitosterol, a phytosterol with a chemical structure similar to cholesterol, and • f) limonene, a cyclic terpene having two unsaturated bonds.
Carrier liquid 2 is a poly-alpha-olefin having a kinematic viscosity of 1240 mm^2/s at 40° C. and a kinematic viscosity of 100 mm^2/s at 100° C. (ASTM D445). It has a flash point of 283° C. (ASTM D92). Carrier liquid 2 is immiscible with water.
(§2) In each experiment, 2 mL of an organic solvent was added to 3 mL of the carrier liquid solutions. The admixture obtained were shaken for 60 min at room temperature. The concentration of each compound in each of the carrier liquids was determined and the partition coefficient was calculated. By partition coefficient P is understood the ratio of concentrations of each of the compounds in an organic solvent and in a carrier liquid. The partition coefficient is expressed as
(§3) log P, being log {[compound]carrier liquid/[compound]organic solvent}.
(§4) The partition coefficients are shown in Table 2 for Carrier liquid 1 and in Table 3 for Carrier liquid 2.

[2] = Partition of model by-product compounds between Carrier liquid 1 (paraffin oil) and organic solvent; type: physicochemical; conditions: log {[compound]carrier liquid/[compound]organic solvent}, 2 mL solvent + 3 mL carrier liquid solution, shaken 60 min at room temperature
Procedure: as §1
Carrier liquid 1 is a paraffin oil with a boiling range of 388 to 709° C. and a kinematic viscosity of 481 mm^2/s at 40° C. and a kinematic viscosity of about 31 at 100° C. (ASTM D445). Carrier liquid 1 is immiscible with water.
as §2, §3, §4

| SMILES | Partition coefficient with Carrier liquid 2, Log P ([1]; Exp. No. 4, solvent methanol) | Partition coefficient with Carrier liquid 2, Log P ([1]; Exp. No. 5, solvent butanol) | Partition coefficient with Carrier liquid 2, Log P ([1]; Exp. No. 6, solvent acetone) | Partition coefficient with Carrier liquid 1, Log P ([2]; Exp. No. 1, solvent methanol) | Partition coefficient with Carrier liquid 1, Log P ([2]; Exp. No. 2, solvent butanol) | Partition coefficient with Carrier liquid 1, Log P ([2]; Exp. No. 3, solvent acetone) |
| --- | --- | --- | --- | --- | --- | --- |
| C=C(C)[C@@H]1CC[C@]2(CO)CC[C@]3(C)[C@H](CC[C@@H]4[C@@]5(C)CC[C@H](O)C(C)(C)[C@@H]5CC[C@]43C)[C@@H]12 [betulin] | −0.36 | −1.09 | −1.03 |  |  |  |
| CC[C@H](CC[C@@H](C)[C@H]1CC[C@H]2[C@@H]3CC=C4C[C@@H](O)CC[C@]4(C)[C@H]3CC[C@]12C)C(C)C [sitosterol] | −0.05 | −0.63 | −0.10 | 0.35 | −0.45 | 0.16 |
